Laboratory results taken from article PMC11340408 (RSC Advances, 2024).

Assays:
Type in all cases: cell-based, human
MCF-7 cell line = experiment: MTT assay, breast cancer MCF-7 cell line; conditions: for IC50: Homo sapiens, MCF7, 48 h, read-out: IC50 against MCF-7; for Activity against MCF-7 compared to MTX (in words): MTT assay; for times greater efficacy than MTX against MCF-7: ratio to MTX IC50
A-375 cell line = experiment: MTT assay, melanoma A-375 cell line; conditions: for IC50: Homo sapiens, A-375, 48 h, read-out: IC50 against A375; for Viability of A375 (in words): 15.62–500 μM, Fig. 6A
HEK-293 cell line = experiment: MTT assay, toxicity on normal cell line HEK-293; conditions: for IC50: Homo sapiens, HEK293, 48 h, read-out: IC50 against HEK-293; for Viability of HEK-293 (in words): 15.62–500 μM

IC50 (MCF-7 cell line) [µM] | IC50 (A-375 cell line) [µM] | SMILES | IC50 (HEK-293 cell line) [µM] | Activity against MCF-7 compared to MTX (in words) (MCF-7 cell line) | times greater efficacy than MTX against MCF-7 (MCF-7 cell line) [times] | Viability of HEK-293 (in words) (HEK-293 cell line; Fig. 6C) | Viability of A375 (in words) (A-375 cell line) | Toxicity to HEK-293 compared to MTX (in words) (HEK-293 cell line; MTT assay) | Viability of MCF-7 (in words) (MCF-7 cell line; 15.62–500 μM, Fig. 6B) | Toxicity to HEK-293 cells (in words) (HEK-293 cell line; MTT assay, normal cell line) | Toxicity against HEK-293 at 500 μM (in words) (HEK-293 cell line; 500 μM, Fig. 6C)
130 ± 3.4 | 368 ± 3.1 | Cn1c(=O)c2c(nc(Oc3ccc(/C=C/C(=O)c4ccc(Cl)cc4)cc3)n2C)n(C)c1=O [Compound 5f, (E)-8-(4-(3-(4-Chlorophenyl)-3-oxoprop-1-enyl)phenoxy)-1,3,7-trimethyl-1H-purine-2,6(3H,7H)-dione] | 240 ± 3.7 |  |  | more toxic |  |  |  |  | 
> 500 | > 500 | Cn1c(=O)c2c(nc(Oc3ccc(/C=C/C(=O)c4cccc([N+](=O)[O-])c4)cc3)n2C)n(C)c1=O [Compound 5c, (E)-1,3,7-Trimethyl-8-(4-(3-(3-nitrophenyl)-3-oxoprop-1-enyl)phenoxy)-1H-purine-2,6(3H,7H)-dione] | > 500 |  |  |  |  |  |  |  | 
223 ± 3.7 | 275 ± 3.7 | Cn1c(=O)c2c(nc(Oc3ccc(/C=C/C(=O)c4ccc([N+](=O)[O-])cc4)cc3)n2C)n(C)c1=O [Compound 5b, (E)-1,3,7-Trimethyl-8-(4-(3-(4-nitrophenyl)-3-oxoprop-1-enyl)phenoxy)-1H-purine-2,6(3H,7H)-dione] | 419 ± 4.6 |  |  |  |  |  |  |  | 
> 500 | > 500 | Cc1ccc(C(=O)/C=C/c2ccc(Oc3nc4c(c(=O)n(C)c(=O)n4C)n3C)cc2)cc1 [Compound 5d, (E)-1,3,7-Trimethyl-8-(4-(3-oxo-3-p-tolylprop-1-enyl)phenoxy)-1H-purine-2,6(3H,7H)-dione] | > 500 |  |  |  |  |  |  |  | 
249 ± 3.2 | 249 ± 3.6 | COc1ccc(C(=O)/C=C/c2ccc(Oc3nc4c(c(=O)n(C)c(=O)n4C)n3C)cc2)cc1 [Compound 5a, (E)-8-(4-(3-(4-Methoxyphenyl)-3-oxoprop-1-enyl)phenoxy)-1,3,7-trimethyl-1H-purine-2,6(3H,7H)-dione] | > 500 |  |  |  |  |  |  |  | 
333 ± 2.5 | > 500 | Cn1c(=O)c2c(nc(Oc3ccc(/C=C/C(=O)c4ccc5ccccc5c4)cc3)n2C)n(C)c1=O [Compound 5e, (E)-1,3,7-Trimethyl-8-(4-(3-(naphthalen-2-yl)-3-oxoprop-1-enyl)phenoxy)-1H-purine-2,6(3H,7H)-dione] | > 500 |  |  |  |  |  |  |  | 

The next lines start with the molecule.

SMILES | IC50 (MCF-7 cell line) [µM] | IC50 (A-375 cell line) [µM] | IC50 (HEK-293 cell line) [µM] | Activity against MCF-7 compared to MTX (in words) (MCF-7 cell line) | times greater efficacy than MTX against MCF-7 (MCF-7 cell line) [times] | Viability of HEK-293 (in words) (HEK-293 cell line; Fig. 6C) | Viability of A375 (in words) (A-375 cell line) | Toxicity to HEK-293 compared to MTX (in words) (HEK-293 cell line; MTT assay) | Viability of MCF-7 (in words) (MCF-7 cell line; 15.62–500 μM, Fig. 6B) | Toxicity to HEK-293 cells (in words) (HEK-293 cell line; MTT assay, normal cell line) | Toxicity against HEK-293 at 500 μM (in words) (HEK-293 cell line; 500 μM, Fig. 6C)
Cn1c(=O)c2c(nc(Oc3ccc(C(=O)/C=C/c4ccc(Cl)cc4Cl)cc3)n2C)n(C)c1=O [Compound 4b, (E)-8-(4-(3-(2,4-Dichlorophenyl)acryloyl)phenoxy)-1,3,7-trimethyl-1H-purine-2,6(3H,7H)-dione] | 230 ± 3.2 | 325 ± 3.1 | 347 ± 4.2 |  |  |  |  |  |  |  | 
Cn1c(=O)c2c(nc(Oc3ccc(C(=O)/C=C/c4ccccc4)cc3)n2C)n(C)c1=O [Compound 4d, (E)-8-(4-Cinnamoylphenoxy)-1,3,7-trimethyl-1H-purine-2,6(3H,7H) dione] | 18 ± 1.9 | 157 ± 4.2 | 220 ± 3.4 | activities surpassing that of MTX | ~19 |  |  |  |  |  | 
Cn1c(=O)c2c(nc(Oc3ccc(C(=O)/C=C/c4c(Cl)cccc4Cl)cc3)n2C)n(C)c1=O [Compound 4j, (E)-8-(4-(3-(2,6-Dichlorophenyl)acryloyl)phenoxy)-1,3,7-trimethyl-1H-purine-2,6(3H,7H)-dione] | 181 ± 3.1 | 200 ± 4.3 | 214 ± 4.3 |  |  |  |  |  |  |  | 
COc1ccc(/C=C/C(=O)c2ccc(Oc3nc4c(c(=O)n(C)c(=O)n4C)n3C)cc2)cc1 [Compound 4h, (E)-8-(4-(3-(4-Methoxyphenyl)acryloyl)phenoxy)-1,3,7-trimethyl-1H-purine-2,6(3H,7H)-dione] | > 500 | > 500 | > 500 |  |  |  |  |  |  |  | 
Cn1c(=O)c2c(nc(Oc3ccc(C(=O)/C=C/c4ccccc4Cl)cc3)n2C)n(C)c1=O [Compound 4i, (E)-8-(4-(3-(2-Chlorophenyl)acryloyl)phenoxy)-1,3,7-trimethyl-1H-purine-2,6(3H,7H)-dione] | 108 ± 3.1 | 111 ± 1.9 | 162 ± 4.2 |  |  | more toxic | lowest viability values | more toxic |  |  | 
Cn1c(=O)c2c(nc(Oc3ccc(C(=O)/C=C/c4ccc(Cl)cc4)cc3)n2C)n(C)c1=O [Compound 4e, (E)-8-(4-(3-(4-Chlorophenyl)acryloyl)phenoxy)-1,3,7-trimethyl-1H-purine-2,6(3H,7H)-dione] | 35 ± 2.2 | 273 ± 3.4 | 386 ± 3.2 | activities surpassing that of MTX | ~10 |  |  |  |  |  | 
COC(=O)c1ccc(/C=C/C(=O)c2ccc(Oc3nc4c(c(=O)n(C)c(=O)n4C)n3C)cc2)cc1 [Compound 4k, (E)-Methyl 4-(3-oxo-3-(4-(1,3,7-trimethyl-2,6-dioxo-2,3,6,7-tetrahydro-1H-purin-8-yloxy)phenyl)prop-1-enyl)benzoate] | 34 ± 3.5 | 92 ± 3.2 | 99 ± 3 | activities surpassing that of MTX | ~10 | highest toxicity and lowest viability | lowest viability values | more toxic | lowest viability rate | most toxic | 
COc1ccccc1/C=C/C(=O)c1ccc(Oc2nc3c(c(=O)n(C)c(=O)n3C)n2C)cc1 [Compound 4c, (E)-8-(4-(3-(2-Methoxyphenyl)acryloyl)phenoxy)-1,3,7-trimethyl-1H-purine-2,6(3H,7H)-dione] | 269 ± 4.5 | 325 ± 3.8 | 451 ± 2.4 |  |  |  |  |  |  |  | 
COc1ccc(/C=C/C(=O)c2ccc(Oc3nc4c(c(=O)n(C)c(=O)n4C)n3C)cc2)c(OC)c1 [Compound 4g, (E)-8-(4-(3-(2,4-Dimethoxyphenyl)acryloyl)phenoxy)-1,3,7-trimethyl-1H-purine-2,6(3H,7H)-dione] | > 500 | 425 ± 3.5 | > 500 |  |  |  |  |  |  |  | 
Cn1c(=O)c2c(nc(Oc3ccc(C(=O)/C=C/c4cccc([N+](=O)[O-])c4)cc3)n2C)n(C)c1=O [Compound 4f, (E)-1,3,7-Trimethyl-8-(4-(3-(3-nitrophenyl)acryloyl)phenoxy)-1H-purine-2,6(3H,7H)-dione] | > 500 | > 500 | > 500 |  |  |  |  |  |  |  | 
Cc1ccc(/C=C/C(=O)c2ccc(Oc3nc4c(c(=O)n(C)c(=O)n4C)n3C)cc2)cc1 [Compound 4a, (E)-1,3,7-Trimethyl-8-(4-(3-p-tolylacryloyl)phenoxy)-1H-purine-2,6(3H,7H)-dione] | 38 ± 3.7 | 279 ± 2.3 | 407 ± 3.1 | activities surpassing that of MTX |  |  |  |  |  |  | 
CN(Cc1cnc2nc(N)nc(N)c2n1)c1ccc(C(=O)N[C@@H](CCC(=O)O)C(=O)O)cc1 [MTX, methotrexate, reference compound] | 343 ± 3.6 | 418 ± 2 | 199 ± 2.4 |  |  |  |  |  |  |  | highest toxicity
